From patent publication US20070207198A1, “Use Of N-Acety1-D-Glucosamine In The Manufacture Of Medicaments For Anti-Tumors And Anti-Metastasis” (Beijing Sino-Hong Kong Dafu Science & Technology of Biowave …, priority 2003, published 2007) come the findings set out here.

Series [1] concerns Proteus Mirabilis. The experiment in a line: Promoting wave test (bio-wave model). The format is cell-based. To be noted: final concentration 0.5% on LB plate, 37° C. From the text:
2. Experimental results and evaluation: • The experiment adopted a bio-wave model for studying the promoting wave function of the compound of formula (I).

A short description of series [2]: Typical case: breast cancer patient, metastasis after operation. It counts as in vivo, human. The conditions noted are these: injection 15 g/60 kg/day before and for a week after the operation; within one year after the operation. From the text:
Chen, female, was accepted by the Department of Surgery of Chuanxinan Mining Area Hospital for suffering with breast cancer. The chief physician, Chen Qi, considered the high metastasis rate after operation, administrated Chen via injected with the compound of formula (I) in a dose of 15 g/60 kg/day before the operation and for a continuous week after the operation.

The test system of series [3] is B16 cells. The experiment in a line: Sole-injected B16 tumor growth in mice. The format is in vivo, Kunming mice and Balbc mice. Also noted: Diameter of tumor: unit not given here. To be noted: for Diameter of tumor: 10% aqueous solution i.p. As to the method: 1.1 Animals Kunming mice, Scad male mice
1.2 Tumor cells: B16 cells, PG cells and Biu cells, which were presented by from the Staff Room of Pathology of the present university and the Tumor Department of the Second Affiliated Hospital, respectively.
1.3 Methods: soles of Kunming mice and Balbc mice were injected with B16 cell suspension, and these mice were intraperitoneally injected with 10% aqueous solution of the compound of formula (I) at 0th, 4th and 7th day after B16 cells were injected.

The conditions of series [4]: in vivo. The text has this:
1. Acute toxicity test: including tests of administrating medicine orally, intravenous injection and maximum limit amount for administration;

On to `CC(=O)N[C@@H]1[C@@H](O)[C@H](O)[C@@H](CO)O[C@H]1O` [compound of formula (I), N-acetyl-D-glucosamine], for which the “promoting wave function (ring pattern compared with control)” value in series [1] was “many fine waves on each ring emerged”. In addition, the metastasis after operation result in series [2] is on record as “no metastasis occurred”. The Diameter of tumor in series [3] (Group I (administered immediately), observation time 3) came out at 0; in series [3] (Group I (administered immediately), observation time 7) it was 0.11; in series [3] (Group I (administered immediately), observation time 14), 0.18; in series [3] (Group I (administered immediately), observation time 21), 0.21; in series [3] (Group I (administered immediately), observation time 28) it was 0.15; in series [3] (Group II (administered at the 4th day), observation time 3), 0.05. Further, the Diameter of tumor stood at 0.12 in series [3] (Group II (administered at the 4th day), observation time 7); 0.43 in series [3] (Group II (administered at the 4th day), observation time 14); 0.58 in series [3] (Group II (administered at the 4th day), observation time 21); 0.72 in series [3] (Group II (administered at the 4th day), observation time 28); 0.1 in series [3] (Group III (administered at the 7th day), observation time 3); 0.21 in series [3] (Group III (administered at the 7th day), observation time 7). The Diameter of tumor was found to be 0.60 in series [3] (Group III (administered at the 7th day), observation time 14); 1.10 in series [3] (Group III (administered at the 7th day), observation time 21); 1.38 in series [3] (Group III (administered at the 7th day), observation time 28). The growth of tumor result in series [3] (high concentration intraperitoneally injected, B16 cells) was “inhibited”. The “acute dosage relative to the injection dosage for human being” value in series [4] is given as 300 times. Moreover, in series [4], the “dosage at which the acute toxicosis reaction had not appeared” value is on record as “more than 2 g/kg”.
